We go through five molecules from PubChem BioAssay (NCI).

Some test systems named below: ACHN renal; COLO 205 colon; HCC-2998 colon; NCI-H522 lung; OVCAR-3 ovarian; OVCAR-4 ovarian; SF-268 CNS; SK-MEL-2 melanoma; SK-OV-3 ovarian; SW-620 colon.
Holding throughout (experiment): NCI tumour cell line growth inhibition, 48 h

Molecules are shown by their SMILES.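 Test compounds were applied to cells in 96-well plates for 48 hours at 5 doses. TGI marks complete inhibition of growth.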 A value given as a limit tells only on which side of the number the result lay.

Take `CCC(C)C(NC(=O)C(CCCCN)NC(=O)C(NC(=O)C(CCC(N)=O)NC(=O)C(CCCNC(=N)N)NC(C)=O)C(C)CC)C(=O)NC(Cc1c[nH]c2ccccc12)C(=O)NC(Cc1ccccc1)C(=O)NC(CCC(N)=O)C(=O)NC(CC(N)=O)C(=O)NC(CCCNC(=N)N)C(=O)NC(CCCNC(=N)N)C(=O)NC(CCSC)C(=O)NC(CCCCN)C(=O)NC(Cc1c[nH]c2ccccc12)C(=O)NC(CCCCN)C(=O)NC(CCCCN)C(N)=O` (stereo not given): the TGI in the experiment with ACHN renal, in the experiment on COLO 205 colon, in the experiment with HCC-2998 colon, in the experiment with NCI-H522 lung, with OVCAR-3 ovarian and with OVCAR-4 ovarian was over 50 µM each time. In addition, the TGI in the experiment on SF-268 CNS, in the experiment with SK-MEL-2 melanoma, in the experiment with SK-OV-3 ovarian and in the experiment on SW-620 colon was over 50 µM each time.
For `CC(=O)C1=C(O)C2(O)C(=O)c3c(c(C)c4ccc(C)c(O)c4c3O)CC2C(N)C1=O` (stereo not given), the TGI with ACHN renal was 7.19 µM; with COLO 205 colon, 3.34 µM; in the experiment with HCC-2998 colon, 15 µM; in the experiment with NCI-H522 lung it was over 29.5 µM; in the experiment on OVCAR-3 ovarian it was 13.2 µM; in the experiment on OVCAR-4 ovarian, 19 µM. For the same molecule, the TGI with SF-268 CNS was 13.6 µM; in the experiment on SK-MEL-2 melanoma it was over 21 µM; with SK-OV-3 ovarian, 12.6 µM; with SW-620 colon it was 23.6 µM.
`N#CCc1[nH]nc2nc(SCc3ccccc3)nc(N3CCCCC3)c12`: the TGI in the experiment with ACHN renal was 41.5 µM; with COLO 205 colon it was 34.7 µM; in the experiment on HCC-2998 colon, 31.9 µM; in the experiment with NCI-H522 lung, 37.9 µM; with OVCAR-3 ovarian it was 37.4 µM; in the experiment on OVCAR-4 ovarian it was 36.4 µM. The TGI in the experiment with SF-268 CNS amounted to 36.7 µM; in the experiment on SK-MEL-2 melanoma it was 39.3 µM; with SK-OV-3 ovarian it was 45.7 µM; with SW-620 colon, 35 µM.
Turning to `COc1ccc(/C=c2/[nH]c(=O)/c(=C\c3ccc(OCc4ccccc4)cn3)[nH]c2=O)cc1`, the TGI with ACHN renal, in the experiment with COLO 205 colon, with HCC-2998 colon, in the experiment with NCI-H522 lung, with OVCAR-3 ovarian and in the experiment with OVCAR-4 ovarian was over 100 µM each time. Moreover, the TGI with SF-268 CNS, in the experiment on SK-MEL-2 melanoma, with SK-OV-3 ovarian and in the experiment on SW-620 colon was over 100 µM in each case.
For `Cc1c(Cl)c(=O)oc2cc(OCC(=O)c3ccccc3)ccc12`, the TGI in the experiment with ACHN renal, in the experiment on COLO 205 colon, in the experiment on HCC-2998 colon, in the experiment with NCI-H522 lung, in the experiment with OVCAR-3 ovarian and in the experiment on OVCAR-4 ovarian was over 100 µM each time. Besides, the TGI in the experiment with SF-268 CNS, with SK-MEL-2 melanoma, in the experiment on SK-OV-3 ovarian and in the experiment with SW-620 colon was over 100 µM throughout.
